{"source": "patent US6969590B2", "about": "“Use of a polypeptide for treatment of pruritus in animals” (Zengen, Inc., priority 2001, dated 2005)", "key": {"C. albicans": {"test_system": "C. albicans", "experiment": "C. albicans colony forming units (candidacidal activity)", "type": "cell-based", "outline": "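C. albicans (1×10^6/ml in HBSS) exposed to peptides (10^−15 to 10^−6 M; later 10^−6 to 10^−4 M, with fluconazole) for 2 hours at 37° C. Washed, diluted, plated on blood agar for 48 hours at 37° C; viability estimated from colony counts, at least six replicates per concentration.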"}, "human neutrophils": {"test_system": "human neutrophils", "experiment": "C. albicans killing by human neutrophils", "type": "cell-based", "settings": "2 hours at 37° C., vs. medium", "method": "Venous blood (20 ml) from healthy volunteers was anticoagulated with heparin. Neutrophils were isolated using dextran sedimentation and Ficoll-Hypaque (Sigma Chemical Co., St. Louis, Mi., USA) centrifugation. Erythrocytes were lysed via hypotonic shock. Neutrophils represented at least 97% of the cell suspension. Cell viability, estimated by trypan blue exclusion, was >98%. Neutrophils were suspended to a final concentration in HBSS. C. albicans (1×10^6) were opsonized with human AB serum in a shaking water bath for 30 minutes at 37° C. Organisms were then incubated with neutrophils in medium or in medium with α-MSH (1-13) or α-MSH (11-13) in concentrations of 10^−15 M to 10^−4 M in a shaking water bath for 2 hours at 37° C. After incubation, the culture tubes were placed on ice to stop growth and extracellular organisms were washed twice with centrifugation at 1000×g at 4° C. A 2.5% sodium desoxycholoate solution was added to obtain a suspension of 10^6 cells/ml. Two 1/100 serial dilutions in HBSS were made to obtain a final suspension of 100 cells/ml. Aliquots of 1 ml were dispensed on blood agar plates and incubated for 48 hours at 37° C. Colony forming units (CFUs) were counted at the end of the incubation period. Experiments were run in triplicate and repeated using blood from 5 different donors."}, "IL-6": {"test_system": "IL-6", "experiment": "IL-6 production by activated N9 microglia", "type": "cell-based, murine", "settings": "microglia stimulated with LPS+IFN-γ for 24 hr, micromolar concentrations", "method": "(§1) The N9 clone of murine microglial cells was obtained by immortalization of embryonic brain cultures with the 3RV retrovirus carrying an activated v-myconcogene. N9 cells were cultured in T-75-cm^2 culture flasks (Corning, Cambridge, Mass.) and maintained at 37° C. in a humidified incubator under 5% CO2 atmosphere in RPMI 1640 supplemented with 2 mM L-glutamine, 50 U/mL penicillin G, 50 μg/mL streptomycin sulfate (GIBCO-BBL, Paisley, UK), and 10% heat-inactivated fetal bovine serum (FBS, Hyclone Lab, Inc., Logan, Utah) until experiments were performed. Cells were used between the first and the tenth passage.\n(§2) Sub-confluent microglial cells were washed twice with phosphate-buffered saline (PBS) and incubated with trypsin 0.025% and ethylenediaminetetraacetate (EDTA) 0.02% without calcium and magnesium for 3 min. at 37° C. to detach the cells from the culture flask. Cells were then resuspended in medium and incubated in 24-well tissue-culture plates at a concentration of 2×10^5 cells/mL for 16 h in a humidified incubator (37° C., 5% CO2). Growth medium was removed and cell monolayers were stimulated with 10 ng/mL lipopolysaccharide (LPS, from Escherichia coli 055:B5, Sigma Chemical Co., St. Louis, Mo.) plus 1 U/ml, murine IFN-γ (Sigma). To test effects of melanocortin peptides, concentrations (1, 10, 25, 50 and 100 μM) of α-MSH (1-13), α-MSH (11-13), and ACTH (1-24) (Sigma) were dissolved in medium and added to wells 10 min before treatment with LPS+IFN-γ. […] Viability of cells was assessed by trypan blue exclusion for each experimental condition; it was consistently >98%. […]\nTNF-α bioactivity was measured in supernatants of cell cultures by standard cytotoxicity assay using L929 cells and recombinant human TNF-α (Sigma) as standard. […] IL-6 was measured using a commercial murine enzyme-linked immunosorbent assay (ELISA: RPN 2714, Amersham, Little Chalfont, UK).\n(§3) Effects of melanocortin peptides on cytokine and NO production were evaluated by repeated measures analysis of variance followed by Dunnet's test for specific comparisons. […]"}, "NO2^−": {"test_system": "NO2^−", "experiment": "Nitrite (NO) production by activated N9 microglia", "type": "cell-based, murine", "settings": "microglia stimulated with LPS+IFN-γ for 24 hr, micromolar concentrations", "method": "as §1, §2\nNO is rapidly oxidized to nitrite (NO2) in culture medium, and nitrite concentration is an indicator of NO production. […] Samples were incubated at room temperature for 10 min and absorbency was measured at 540 nm with the use of a microplate reader. Nitrite concentrations were calculated using a sodium nitrite standard curve.\nas §3"}}, "note": "Entries after “also recorded” stand apart in the source; their conditions may differ."}
{"sequence": "SYSMEHFRWGKPV [α-MSH (1-13)]", "values": [{"measurement": "relative potency in reducing C. albicans viability", "setting": "C. albicans; 10^−4M melanocortin peptides", "result": "the most effective"}, {"measurement": "effect on C. albicans colony forming units (CFU)", "setting": "C. albicans; 2 hours at 37° C., vs. control", "result": "greatly reduced; also recorded: significantly decreased C. albicans colony forming units; also recorded: inhibitory effect"}, {"measurement": "killing of C. albicans by human neutrophils", "setting": "human neutrophils", "result": "enhanced the killing"}, {"measurement": "reduction of production of IL-6", "setting": "IL-6", "result": 31, "unit": "%"}, {"measurement": "reduction of production of NO2^−", "setting": "NO2^−", "result": 42, "unit": "%"}]}
